The record followed here is ChEMBL document CHEMBL4725485, “Bivalent Ligand Aiming Putative Mu Opioid Receptor and Chemokine Receptor CXCR4 Dimers in Opioid Enhanced HIV-1 Entry” (ACS Med Chem Lett, 2020).

Data set [1] deals with Mu-type opioid receptor (Mus musculus, UniProt P42866). Briefly: Displacement of [3H]-NLX from mouse mu opioid receptor expressed in CHO cells measured after 1.5 hrs by competitive-binding assay. Type of data set: cell-based. Background: In a radioligand displacement assay an active substance lowers the binding of a labelled ligand.
Chain of Mu-type opioid receptor (Mus musculus, UniProt P42866) (P42866 whole entry): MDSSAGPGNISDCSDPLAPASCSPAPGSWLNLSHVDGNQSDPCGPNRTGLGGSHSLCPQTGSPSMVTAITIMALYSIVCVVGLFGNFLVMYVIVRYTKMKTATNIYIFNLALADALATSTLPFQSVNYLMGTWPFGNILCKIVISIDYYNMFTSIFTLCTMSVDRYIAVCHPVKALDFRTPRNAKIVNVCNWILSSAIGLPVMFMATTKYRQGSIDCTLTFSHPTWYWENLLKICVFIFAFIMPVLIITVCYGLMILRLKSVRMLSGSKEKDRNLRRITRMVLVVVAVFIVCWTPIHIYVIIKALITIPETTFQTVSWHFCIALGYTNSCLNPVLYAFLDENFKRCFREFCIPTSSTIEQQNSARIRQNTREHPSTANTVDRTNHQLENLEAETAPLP
Data set [2] relates to Human immunodeficiency virus 1. As to the kind of experiment: Antiviral activity against HIV1 3B infected in human TZM-bl cells assessed as reduction in viral entry by measuring Tat protein level at 1500 nM measured after 3 days in presence of IT1T and morphine by luciferase-based assay. It counts as functional, organism-based. The note with it: time 3.0 day.
Data set [3] deals with T1, C-X-C chemokine receptor type 4 (Homo sapiens, UniProt P61073). As to the kind of experiment: Displacement of [125I]SDF-1alpha from CXCR4 in human Chem-1 cells measured after 90 mins. Type of data set: cell-based.
T1 sequence (P61073 whole entry): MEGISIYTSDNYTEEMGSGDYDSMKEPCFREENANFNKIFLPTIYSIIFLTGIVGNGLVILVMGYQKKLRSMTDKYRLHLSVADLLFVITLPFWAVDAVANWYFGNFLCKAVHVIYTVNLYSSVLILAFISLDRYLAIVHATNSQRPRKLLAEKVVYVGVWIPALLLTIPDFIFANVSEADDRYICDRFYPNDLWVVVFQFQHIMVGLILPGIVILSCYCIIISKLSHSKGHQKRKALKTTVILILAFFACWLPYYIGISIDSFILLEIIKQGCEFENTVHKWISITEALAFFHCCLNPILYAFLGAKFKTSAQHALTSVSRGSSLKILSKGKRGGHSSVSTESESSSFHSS
The target in data set [4] is T1, C-X-C chemokine receptor type 4. Briefly: Antagonist activity at CXCR4 (unknown origin) expressed in CHO cells assessed as reduction in SDF1-induced intracellular calcium mobilization incubated for 15 mins followed by SDF1 addition by Fluo-AM dye based fluorescence assay. It counts as functional, cell-based. On the technique in general: A change in cytosolic calcium serves as a functional read-out for many receptors and channels.

Data set [5] can be described thus: Therapeutic index, ratio of TC50 for human GHOST CXCR4 cells assessed as reduction in cell viability incubated for 4 hrs by XTT assay to EC50 for HIV1 3B reverse transcriptase infected in human GHOST CXCR4 cells assessed as reduction in viral replication incubated for 60 to 90 mins in presence of DTT and TTP by liquid scintillation counter. It counts as toxicity, cell-based. The conditions noted are these: read-out: TI. For orientation: Tetrazolium assays rely on reduction of a dye to a coloured formazan, in cell work by metabolically active cells.

The nature of data set [6]: Cytotoxicity against human GHOST CXCR4 cells assessed as reduction in cell viability incubated for 4 hrs by XTT assay. It counts as cell-based. The note with it: read-out: TC50.
The nature of data set [7]: Inhibition of HIV1 3B Tat infected in human TZM-bl cells assessed as reduction in viral entry in cells when pretreated for 1 hr followed by HIV1 3B infection and further incubated for 2 days followed by luciferase substrate addition by luminescence assay. It counts as cell-based. The conditions noted are these: Human immunodeficiency virus 1, 3B.
Data set [8] deals with Human immunodeficiency virus 1. As to the kind of experiment: Antiviral activity against HIV1 3B infected in human TZM-bl cells assessed as reduction in viral entry by measuring Tat protein level at 60 nM measured after 3 days by luciferase-based assay. It counts as functional, organism-based. The note with it: time 3.0 day.
For data set [9], the system named is Human immunodeficiency virus 1. As to the kind of experiment: Antiviral activity against HIV1 3B infected in human TZM-bl cells assessed as reduction in viral entry by measuring Tat protein level at 60 nM measured after 3 days in presence of morphine by luciferase-based assay. Type of data set: functional, organism-based. The conditions noted are these: time 3.0 day.

Data set [10] has as its system Human immunodeficiency virus 1. Briefly: Antiviral activity against HIV1 3B infected in human TZM-bl cells assessed as reduction in viral entry by measuring Tat protein level at 60 nM measured after 3 days in presence of naltrexone and morphine by luciferase-based assay. Type of data set: functional, organism-based. The note with it: time 3.0 day.
Data set [11] deals with T2, Mu-type opioid receptor (Homo sapiens, UniProt P35372). Briefly: Agonist activity at mu opioid receptor (unknown origin) by [35S]-GTPgammaS binding assay. It counts as functional.
T2 sequence (P35372 whole entry): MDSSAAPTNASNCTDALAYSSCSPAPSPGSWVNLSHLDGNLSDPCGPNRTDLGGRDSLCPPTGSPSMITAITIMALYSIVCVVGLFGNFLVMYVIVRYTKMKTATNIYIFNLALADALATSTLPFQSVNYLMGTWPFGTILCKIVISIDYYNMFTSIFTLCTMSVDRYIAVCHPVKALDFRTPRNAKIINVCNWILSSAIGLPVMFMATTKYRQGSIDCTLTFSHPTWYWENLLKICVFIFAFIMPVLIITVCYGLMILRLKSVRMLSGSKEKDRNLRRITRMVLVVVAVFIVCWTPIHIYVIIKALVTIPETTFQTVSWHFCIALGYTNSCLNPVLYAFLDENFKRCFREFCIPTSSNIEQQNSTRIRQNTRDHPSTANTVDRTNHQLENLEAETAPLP
For data set [12], the target named is T2, Mu-type opioid receptor. As to the kind of experiment: Agonist activity at mu opioid receptor (unknown origin) assessed as maximum efficacy by [35S]-GTPgammaS binding assay relative to DAMGO. It counts as functional. The conditions noted are these: filed as agonist.
The target of data set [13] is T2, Mu-type opioid receptor. As to the kind of experiment: Antagonist activity at human mu opioid receptor expressed in CHO cells co- expressing Gqi5 assessed as decrease in DAMGO-induced intracellular calcium mobilization incubated for 15 mins followed by DAMGO addition by Fluo-AM dye based fluorescence assay. Type of data set: functional, cell-based.
A further data set relates to TZM-bl. Briefly: Inhibition of HIV1 3B Tat infected in human TZM-bl cells assessed as reduction in viral entry in cells at 30 uM when pretreated for 1 hr followed by HIV1 3B infection and further incubated for 2 days followed by luciferase substrate addition by luminescence assay relative to control. Type of data set: cell-based. The conditions noted are these: Human immunodeficiency virus 1, time 2.0 day.

Data set [14] concerns Human immunodeficiency virus 1. Briefly: Antiviral activity against HIV1 3B infected in human TZM-bl cells assessed as reduction in viral entry by measuring Tat protein level at 1000 nM measured after 3 days by luciferase-based assay. Type of data set: functional, organism-based. The conditions noted are these: time 3.0 day.
Data set [15] relates to Human immunodeficiency virus 1. Briefly: Antiviral activity against HIV1 3B infected in human TZM-bl cells assessed as reduction in viral entry by measuring Tat protein level at 1000 nM measured after 3 days in presence of morphine by luciferase-based assay. Type of data set: functional, organism-based. The note with it: time 3.0 day.

Active and inactive are the calls of the source. The calls are words filed in the database; no cut-off is given here.

In general, Ki refers to the equilibrium dissociation constant of an inhibitor or competing ligand from its target. Low values mean tighter binding, high ones weaker binding. `CC1(C)CN2C(CS/C(=N\[C@H]3CC[C@H](CNC(=O)COCC(=O)NCCCCCCCCNC(=O)COCC(=O)N[C@@H]4CC[C@@]5(O)[C@H]6Cc7ccc(O)c8c7[C@@]5(CCN6CC5CC5)[C@H]4O8)CC3)NC3CCCCC3)=CSC2=N1` gave a Ki at Mu-type opioid receptor [1] of 0.00292 µM.
As for `O=C1CC[C@@]2(O)[C@H]3Cc4ccc(O)c5c4[C@@]2(CCN3CC2CC2)[C@H]1O5`, in [2], the result was Active.
One may read the IC50 as the midpoint of a concentration-inhibition curve. Take `CNC(=O)COCC(=O)NCCCCNC(=O)COCC(=O)NC[C@H]1CC[C@H](/N=C(\NC2CCCCC2)SCC2=CSC3=NC(C)(C)CN23)CC1`: the IC50 in [3] worked out at 69 µM; in data set [4], 53 µM. Further, the selectivity ratio at 4 h in data set [5] was 3.8.
Take `CC1(C)CN2C(CS/C(=N\[C@H]3CC[C@H](CNC(=O)COCC(=O)NCCCCCCNC(=O)COCC(=O)N[C@@H]4CC[C@@]5(O)[C@H]6Cc7ccc(O)c8c7[C@@]5(CCN6CC5CC5)[C@H]4O8)CC3)NC3CCCCC3)=CSC2=N1`: the IC50 in [3] turned out to be 0.0172 µM.
As to `CC1(C)CN2C(CS/C(=N\C3CCCCC3)NC3CCCCC3)=CSC2=N1`, in [6], the CC50 at 4 h was over 1 µM. For the same compound, in data set [7], the IC50 came to 0.164 µM. The result in data set [8], in data set [9] and in [10] was Active.
The EC50 is the concentration giving half of the maximal effect. One may read the Emax as the maximal effect, on the per cent scale that the assay sets. `CNC(=O)COCC(=O)NCCCCNC(=O)COCC(=O)N[C@@H]1CC[C@@]2(O)[C@H]3Cc4ccc(O)c5c4[C@@]2(CCN3CC2CC2)[C@H]1O5` had a Ki on Mu-type opioid receptor [1] of 0.0031 µM. This compound returned an EC50 at Mu-type opioid receptor [11] of 0.0081 µM. The Emax on Mu-type opioid receptor [12] turned out to be 12.3%. Moreover, on Mu-type opioid receptor [13], the IC50 is 0.254 µM.
Usually inhibition stands for the share of the control response that was lost under treatment. As for `CC1(C)CN2C(CS/C(N)=N\[C@H]3CC[C@H](CNC(=O)COCC(=O)NCCCCNC(=O)COCC(=O)N[C@@H]4CC[C@@]5(O)[C@H]6Cc7ccc(O)c8c7[C@@]5(CCN6CC5CC5)[C@H]4O8)CC3)=CSC2=N1`, the Ki on Mu-type opioid receptor [1] came out at 0.0038 µM. Further, the EC50 at Mu-type opioid receptor [11] was found to be 0.05 µM. Moreover, the Emax at Mu-type opioid receptor [12] turned out to be 9.5%. Moreover, the IC50 worked out at 0.0305 µM at Mu-type opioid receptor [13], 3.6 µM in data set [3], 8.3 µM in data set [4] and 0.3 µM in data set [7]. The CC50 at 4 h in data set [6] stood at 153 µM. The selectivity ratio at 4 h in [5] came out at 160. For the same compound, the inhibition with TZM-bl turned out to be 100%. Moreover, the outcome in data set [14] and in data set [15] was Active.
